One molecule from publication PMC6300358, “Preacinetobactin not acinetobactin is essential for iron uptake by the BauA transporter of the pathogen Acinetobacter baumannii” (eLife, 2018) can be followed below.

This assay deals with T1, BauA (Acinetobacter baumannii, UniProt Q76HJ9).
T1 construct: mature protein (signal peptide removed); residues 33 to 703 well defined in the apo structure
In words: ITC (Kd […] at Fe3+:siderophore […]; […] at […]) and […] Å crystal structure. The format is binding.

T1 sequence (Q76HJ9 entry or part of it): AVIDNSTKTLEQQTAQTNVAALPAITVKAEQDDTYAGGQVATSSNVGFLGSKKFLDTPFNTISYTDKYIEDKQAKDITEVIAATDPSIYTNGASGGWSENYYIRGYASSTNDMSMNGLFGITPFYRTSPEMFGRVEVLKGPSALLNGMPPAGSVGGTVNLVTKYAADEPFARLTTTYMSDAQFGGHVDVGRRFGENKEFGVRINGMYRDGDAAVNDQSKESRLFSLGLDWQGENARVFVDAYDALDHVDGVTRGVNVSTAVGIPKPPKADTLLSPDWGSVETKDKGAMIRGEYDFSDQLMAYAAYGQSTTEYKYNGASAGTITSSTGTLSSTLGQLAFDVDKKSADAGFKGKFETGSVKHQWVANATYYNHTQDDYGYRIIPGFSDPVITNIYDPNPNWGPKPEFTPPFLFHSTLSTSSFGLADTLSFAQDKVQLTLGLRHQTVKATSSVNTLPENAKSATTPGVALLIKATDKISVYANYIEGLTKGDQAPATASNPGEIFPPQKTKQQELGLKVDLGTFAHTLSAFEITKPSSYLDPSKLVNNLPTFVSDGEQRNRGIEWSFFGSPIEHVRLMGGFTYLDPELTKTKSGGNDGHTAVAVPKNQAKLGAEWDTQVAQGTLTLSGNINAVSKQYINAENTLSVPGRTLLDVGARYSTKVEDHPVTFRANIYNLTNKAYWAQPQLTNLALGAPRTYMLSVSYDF

On to `C[C@H]1OC(c2cccc(O)c2O)=N[C@@H]1C(=O)N(O)CCc1cnc[nH]1` [preacinetobactin], for which the Kd (usually the free concentration of one partner at which half of the binding sites on the other are occupied at equilibrium, for simple one-to-one binding) was determined as 83 nM.
